Results from US20060234329A1, “Method for determining the antiradical defense potential and use thereof, in particular in veterinary and human preventive therapeutics” (priority 2003, published 2006).

Key:
control whole blood = test: prior KRL test without hydrolysis: lysis by free radicals; format: cell-based
Description: This known method has been standardised using whole human or animal blood, which is diluted, instead of the above-stated erythrocytes isolated from whole blood. The standardised method has been successfully marketed under the name “KRL Test” (kit radicaux libres [=free radical kit]) in particular for determining (i) the antiradical defence capacity of a human, animal or plant cellular tissue, or (ii) the possible antiradical properties of a physical, chemical or biological agent. More specifically, the KRL test is performed by 1) bringing (a) previously diluted control whole blood into contact in an appropriate buffer medium with (b) an agent to be tested (in particular a cellular material, a substance or a composition) and (c) a free radical generator, 2) inducing release of the free radicals, 3) monitoring the lysis kinetics of the erythrocytes from the control whole blood by measuring the absorbance of the reaction medium, then 4) comparing said latter value with that of control whole blood determined under the same conditions without the agent to be tested.
(§1) Sulfated ferulic acid (I) consequently comprises a double antiradical reserve which is usable by hydrolysis. The antiradical activity of these products was determined according to the prior KRL test without hydrolysis, on the one hand, and according to the invention after hydrolysis, on the other hand. The results obtained are set out in Table I which illustrates the value of hydrolysis according to the invention. [drawing 5]

[1] = system: whole blood, erythrocytes or blood plasma; test: method of the invention: hydrolysis, then lysis by free radicals; format: cell-based; details: with hydrolysis according to the invention
Description: as §1
The method of the invention has been standardised for use with whole blood, erythrocytes or blood plasma as the second cellular material. […] The T½ value and the other parameters stated above are then determined. […]
The sample to be tested (50 μl), which contains or is associated with whole blood, with erythrocytes or, respectively, with plasma and if necessary is diluted, is introduced into the dilution solution (220 μl) placed in the wells of a microplate. Hydrolysis is performed, the free radical generator is introduced, release of the free radicals is initiated and the T½ value and said other parameters are determined according to the methods stated above.
In practice, it is recommended to use the following quantities of enzymes, where U denotes the international unit of the enzyme in question: • β-glucosidase at a final concentration of 11.11 U/ml (3 U/well), • sulfatase at a final concentration of 3 U/ml (0.8 U/well), and/or • β-glucuronidase at a final concentration of 2222.22 U/ml (600 U/well). Other advantages and characteristics of the invention will be better understood on reading the Examples and tests stated hereafter. […]

Row | Structure (SMILES) | Antiradical activity relative to ferulic acid, without hydrolysis (control whole blood) | Antiradical activity relative to ferulic acid, with hydrolysis [1]
1 | COc1cc(/C=C/C(=O)O)ccc1OS(=O)(=O)O [sulfated ferulic acid (I), sulfated ferulic acid] | 0.01 | 2.06
2 | O=C(O)/C=C/c1ccc(O)c(O)c1 [trans-caffeic acid (III), trans-caffeic acid] | 2.06 | 2.06
3 | COc1cc(/C=C/C(=O)O)ccc1O [trans-ferulic acid (II), trans-ferulic acid] | 1.00 | 2.05
